Source: PubChem BioAssay AID1963861 (Molecular Pharmacology Branch, DTP, NCI, 2024)
pIC50: −log10 of the molar value.

Tested on: 885724-159-R-J1-PDC KRAS PDC multicell spheroid viability
Experiment: Anticancer human tumor 885724-159-R-J1-PDC patient-derived pancreatic adenocarcinoma cell line growth inhibition [KRAS2]
Conditions: for pIC50: curve of first compound; for viability, T/C: stronger effect = lower value
Method in brief: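 Combination screen of spheroid viability in tumor-cell co-cultures with endothelial (HUVEC) and mesenchymal stem cell stroma. Each agent was tested in half-log dilutions, topping at clinical Cmax or at 10 microM without a known Cmax.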

[1] = second compound 0.1 µM, first compound 0.000316 µM
[2] = second compound 0.1 µM, first compound 0.001 µM
[3] = second compound 0.1 µM, first compound 0.00316 µM
[4] = second compound 0.1 µM, first compound 0.01 µM
[5] = second compound 0.1 µM, first compound 0.0316 µM
[6] = second compound 0.316 µM, first compound 0.000316 µM
[7] = second compound 0.316 µM, first compound 0.001 µM
[8] = second compound 0.316 µM, first compound 0.00316 µM
[9] = second compound 0.316 µM, first compound 0.01 µM
[10] = second compound 0.316 µM, first compound 0.0316 µM
[11] = second compound 1 µM, first compound 0.000316 µM
[12] = second compound 1 µM, first compound 0.001 µM
[13] = second compound 1 µM, first compound 0.00316 µM
[14] = second compound 1 µM, first compound 0.01 µM
[15] = second compound 1 µM, first compound 0.0316 µM
[16] = second compound 3.16 µM, first compound 0.000316 µM
[17] = second compound 3.16 µM, first compound 0.001 µM
[18] = second compound 3.16 µM, first compound 0.00316 µM
[19] = second compound 3.16 µM, first compound 0.01 µM
[20] = second compound 3.16 µM, first compound 0.0316 µM
[21] = second compound 10 µM, first compound 0.000316 µM
[22] = second compound 10 µM, first compound 0.001 µM
[23] = second compound 10 µM, first compound 0.00316 µM
[24] = second compound 10 µM, first compound 0.01 µM
[25] = second compound 10 µM, first compound 0.0316 µM
[26] = second compound 0.1 µM, first compound 0.1 µM
[27] = second compound 0.316 µM, first compound 0.1 µM
[28] = second compound 1 µM, first compound 0.1 µM
[29] = second compound 3.16 µM, first compound 0.1 µM
[30] = second compound 10 µM, first compound 0.1 µM
[31] = second compound 0.1 µM, first compound 0.316 µM
[32] = second compound 0.1 µM, first compound 1 µM
[33] = second compound 0.1 µM, first compound 3.16 µM
[34] = second compound 0.1 µM, first compound 10 µM
[35] = second compound 0.316 µM, first compound 0.316 µM
[36] = second compound 0.316 µM, first compound 1 µM
[37] = second compound 0.316 µM, first compound 3.16 µM
[38] = second compound 0.316 µM, first compound 10 µM
[39] = second compound 1 µM, first compound 0.316 µM
[40] = second compound 1 µM, first compound 1 µM
[41] = second compound 1 µM, first compound 3.16 µM
[42] = second compound 1 µM, first compound 10 µM
[43] = second compound 3.16 µM, first compound 0.316 µM
[44] = second compound 3.16 µM, first compound 1 µM
[45] = second compound 3.16 µM, first compound 3.16 µM
[46] = second compound 3.16 µM, first compound 10 µM
[47] = second compound 10 µM, first compound 0.316 µM
[48] = second compound 10 µM, first compound 1 µM
[49] = second compound 10 µM, first compound 3.16 µM
[50] = second compound 10 µM, first compound 10 µM
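Note: spheroids exposed to agents for 7 days before readout.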

CC(=O)Nc1cccc(-n2c(=O)n(C3CC3)c(=O)c3c(Nc4ccc(I)cc4F)n(C)c(=O)c(C)c32)c1 + COc1cc2nc(C)nc(NC(C)c3cc(N)cc(C(F)(F)F)c3)c2cc1OC1CCOC1
pIC50 (second compound 0.1 µM): 9.01
pIC50 (second compound 0.316 µM): 9.04
pIC50 (second compound 1 µM): 9.07
pIC50 (second compound 3.16 µM): 9.15
pIC50 (second compound 10 µM): > 10.00
viability, T/C (second compound 0.1 µM, first compound 0.0001 µM): 91%
viability, T/C [1]: 73%
viability, T/C [2]: 48.1%
viability, T/C [3]: 32.7%
viability, T/C [4]: 26.2%
viability, T/C [5]: 17%
viability, T/C (second compound 0.316 µM, first compound 0.0001 µM): 87.2%
viability, T/C [6]: 68.9%
viability, T/C [7]: 46.4%
viability, T/C [8]: 34.3%
viability, T/C [9]: 24.9%
viability, T/C [10]: 17.3%
viability, T/C (second compound 1 µM, first compound 0.0001 µM): 89.8%
viability, T/C [11]: 68.4%
viability, T/C [12]: 46.1%
viability, T/C [13]: 31.6%
viability, T/C [14]: 24.6%
viability, T/C [15]: 17.1%
viability, T/C (second compound 3.16 µM, first compound 0.0001 µM): 74.9%
viability, T/C [16]: 62.8%
viability, T/C [17]: 44.4%
viability, T/C [18]: 27.6%
viability, T/C [19]: 19.1%
viability, T/C [20]: 10.7%
viability, T/C (second compound 10 µM, first compound 0.0001 µM): 34.8%
viability, T/C [21]: 18.5%
viability, T/C [22]: 3.24%
viability, T/C [23]: 0.51%
viability, T/C [24]: 0.67%
viability, T/C [25]: 0.32%

CC(C)n1nc(-c2ccc3oc(N)nc3c2)c2c(N)ncnc21 + COc1cc2nc(C)nc(NC(C)c3cc(N)cc(C(F)(F)F)c3)c2cc1OC1CCOC1
pIC50 (second compound 0.1 µM): 7.77
pIC50 (second compound 0.316 µM): 7.69
pIC50 (second compound 1 µM): 7.74
pIC50 (second compound 3.16 µM): 8.12
pIC50 (second compound 10 µM): > 9.50
viability, T/C [1]: 91.2%
viability, T/C [2]: 76.2%
viability, T/C [3]: 62.7%
viability, T/C [4]: 53.2%
viability, T/C [5]: 47%
viability, T/C [26]: 40.3%
viability, T/C [6]: 90.3%
viability, T/C [7]: 75.8%
viability, T/C [8]: 66.4%
viability, T/C [9]: 57.2%
viability, T/C [10]: 45%
viability, T/C [27]: 39.2%
viability, T/C [11]: 93%
viability, T/C [12]: 78.8%
viability, T/C [13]: 59.7%
viability, T/C [14]: 56%
viability, T/C [15]: 46.9%
viability, T/C [28]: 42%
viability, T/C [16]: 76.4%
viability, T/C [17]: 69.8%
viability, T/C [18]: 54.8%
viability, T/C [19]: 49.1%
viability, T/C [20]: 47%
viability, T/C [29]: 42.6%
viability, T/C [21]: 36.4%
viability, T/C [22]: 24.9%
viability, T/C [23]: 47.5%
viability, T/C [24]: 39.8%
viability, T/C [25]: 31.4%
viability, T/C [30]: 20.9%

CC1(C)CCC(CN2CCN(c3ccc(C(=O)NS(=O)(=O)c4ccc(NCC5CCOCC5)c([N+](=O)[O-])c4)c(Oc4cnc5[nH]ccc5c4)c3)CC2)=C(c2ccc(Cl)cc2)C1 + COc1cc2nc(C)nc(NC(C)c3cc(N)cc(C(F)(F)F)c3)c2cc1OC1CCOC1
pIC50 (second compound 0.1 µM): 5.14
pIC50 (second compound 0.316 µM): 5.16
pIC50 (second compound 1 µM): 5.30
pIC50 (second compound 3.16 µM): 5.37
pIC50 (second compound 10 µM): > 7.50
viability, T/C [5]: 93.7%
viability, T/C [26]: 91.3%
viability, T/C [31]: 91.8%
viability, T/C [32]: 88.3%
viability, T/C [33]: 82.2%
viability, T/C [34]: 37.6%
viability, T/C [10]: 96.9%
viability, T/C [27]: 88.4%
viability, T/C [35]: 86%
viability, T/C [36]: 92.7%
viability, T/C [37]: 79.5%
viability, T/C [38]: 35.7%
viability, T/C [15]: 91.2%
viability, T/C [28]: 88.3%
viability, T/C [39]: 81.9%
viability, T/C [40]: 83.1%
viability, T/C [41]: 64.1%
viability, T/C [42]: 28%
viability, T/C [20]: 84.4%
viability, T/C [29]: 82.8%
viability, T/C [43]: 84.4%
viability, T/C [44]: 71.7%
viability, T/C [45]: 59.7%
viability, T/C [46]: 26.4%
viability, T/C [25]: 31.2%
viability, T/C [30]: 35.5%
viability, T/C [47]: 23.4%
viability, T/C [48]: 27.7%
viability, T/C [49]: 26.2%
viability, T/C [50]: 8.47%

COC(=O)c1ccc2c(C(=Nc3ccc(N(C)C(=O)CN4CCN(C)CC4)cc3)c3ccccc3)c(O)[nH]c2c1 + COc1cc2nc(C)nc(NC(C)c3cc(N)cc(C(F)(F)F)c3)c2cc1OC1CCOC1
pIC50 (second compound 0.1 µM): 5.64
pIC50 (second compound 0.316 µM): 5.61
pIC50 (second compound 1 µM): 5.70
pIC50 (second compound 3.16 µM): 5.75
pIC50 (second compound 10 µM): > 7.50
viability, T/C [5]: 121%
viability, T/C [26]: 127%
viability, T/C [31]: 120%
viability, T/C [32]: 118%
viability, T/C [33]: 23.7%
viability, T/C [34]: 1.54%
viability, T/C [10]: 107%
viability, T/C [27]: 114%
viability, T/C [35]: 102%
viability, T/C [36]: 103%
viability, T/C [37]: 34.5%
viability, T/C [38]: 0.96%
viability, T/C [15]: 103%
viability, T/C [28]: 106%
viability, T/C [39]: 107%
viability, T/C [40]: 98.1%
viability, T/C [41]: 17%
viability, T/C [42]: 1.09%
viability, T/C [20]: 93.8%
viability, T/C [29]: 98.6%
viability, T/C [43]: 104%
viability, T/C [44]: 95.8%
viability, T/C [45]: 3.95%
viability, T/C [46]: 0.79%
viability, T/C [25]: 46.7%
viability, T/C [30]: 48.8%
viability, T/C [47]: 19.4%
viability, T/C [48]: 8.2%
viability, T/C [49]: 0.75%
viability, T/C [50]: 0.36%

COc1cc(Nc2ncc3c(n2)-c2ccc(Cl)cc2C(c2c(F)cccc2OC)=NC3)ccc1C(=O)O + COc1cc2nc(C)nc(NC(C)c3cc(N)cc(C(F)(F)F)c3)c2cc1OC1CCOC1
pIC50 (second compound 0.1 µM): < 5.00
pIC50 (second compound 0.316 µM): < 5.00
pIC50 (second compound 1 µM): < 5.00
pIC50 (second compound 3.16 µM): < 5.00
pIC50 (second compound 10 µM): 7.05
viability, T/C [5]: 110%
viability, T/C [26]: 99.3%
viability, T/C [31]: 90.9%
viability, T/C [32]: 105%
viability, T/C [33]: 106%
viability, T/C [34]: 108%
viability, T/C [10]: 114%
viability, T/C [27]: 96.4%
viability, T/C [35]: 90.7%
viability, T/C [36]: 96.1%
viability, T/C [37]: 102%
viability, T/C [38]: 105%
viability, T/C [15]: 108%
viability, T/C [28]: 102%
viability, T/C [39]: 101%
viability, T/C [40]: 93.7%
viability, T/C [41]: 108%
viability, T/C [42]: 107%
viability, T/C [20]: 98.8%
viability, T/C [29]: 96.8%
viability, T/C [43]: 92.3%
viability, T/C [44]: 92.5%
viability, T/C [45]: 97.5%
viability, T/C [46]: 114%
viability, T/C [25]: 83.4%
viability, T/C [30]: 45.5%
viability, T/C [47]: 44%
viability, T/C [48]: 45.6%
viability, T/C [49]: 62.9%
viability, T/C [50]: 30.3%

COc1cc2nccc(Oc3ccc(NC(=O)C4(C(=O)Nc5ccc(F)cc5)CC4)cc3)c2cc1OC + COc1cc2nc(C)nc(NC(C)c3cc(N)cc(C(F)(F)F)c3)c2cc1OC1CCOC1
pIC50 (second compound 0.1 µM): < 5.00
pIC50 (second compound 0.316 µM): < 5.00
pIC50 (second compound 1 µM): 5.33
pIC50 (second compound 3.16 µM): 5.76
pIC50 (second compound 10 µM): > 7.50
viability, T/C [5]: 99.6%
viability, T/C [26]: 102%
viability, T/C [31]: 104%
viability, T/C [32]: 91%
viability, T/C [33]: 65.2%
viability, T/C [34]: 60%
viability, T/C [10]: 96.6%
viability, T/C [27]: 93.5%
viability, T/C [35]: 93.1%
viability, T/C [36]: 80.9%
viability, T/C [37]: 65.8%
viability, T/C [38]: 54.8%
viability, T/C [15]: 97.4%
viability, T/C [28]: 93.4%
viability, T/C [39]: 76.2%
viability, T/C [40]: 73.9%
viability, T/C [41]: 48.7%
viability, T/C [42]: 44.6%
viability, T/C [20]: 88.8%
viability, T/C [29]: 97.9%
viability, T/C [43]: 89.5%
viability, T/C [44]: 67.6%
viability, T/C [45]: 28.7%
viability, T/C [46]: 31.8%
viability, T/C [25]: 55%
viability, T/C [30]: 17.2%
viability, T/C [47]: 21.5%
viability, T/C [48]: 28.1%
viability, T/C [49]: 0.71%
viability, T/C [50]: 0.34%
